Measured values: the supplement of paper PMC10307832

Tests used:
Assay in all cases: relative viability (nuclei count vs DMSO), 5 days (fraction); higher = more cells survive
[1] = compound: C1=CC2=NC=CN=C2C=C1/C=C/3\C(=O)NC(=O)S3 + COc1cc2c(Oc3ccc(NC(=O)C4(C(=O)Nc5ccc(F)cc5)CC4)cc3F)ccnc2cc1OCCCN1CCOCC1 [Foretinib] (partner 0.25 µM)
Summary of the method: (§1)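 Values are medians from duplicate plates. Each reflects relative viability, defined as the nuclei count of treated wells over that of vehicle wells. Lung cancer cell lines in 1536-well plates were pin-tool dosed one day after seeding with one drug alone or with a fixed anchor-drug dose plus five library-drug doses (not always all listed) in √10 steps, then fixed, stained and imaged at 4× after 5 days.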

[2] = compound: C1=CC2=NC=CN=C2C=C1/C=C/3\C(=O)NC(=O)S3 + CS(=O)(=O)CCNCc1ccc(-c2ccc3ncnc(Nc4ccc(OCc5cccc(F)c5)c(Cl)c4)c3c2)o1 [Lapatinib] (partner 2 µM)
Summary of the method: as §1

BGJ398 + OSI-027 = compound: CCN1CCN(c2ccc(Nc3cc(N(C)C(=O)Nc4c(Cl)c(OC)cc(OC)c4Cl)ncn3)cc2)CC1 [BGJ398] + COc1cccc2cc(-c3nc([C@H]4CC[C@H](C(=O)O)CC4)n4ncnc(N)c34)[nH]c12 [OSI-027] (partner 0.5 µM)
Summary of the method: as §1

BGJ398 + AZD7762 = compound: CCN1CCN(c2ccc(Nc3cc(N(C)C(=O)Nc4c(Cl)c(OC)cc(OC)c4Cl)ncn3)cc2)CC1 [BGJ398] + NC(=O)Nc1cc(-c2cccc(F)c2)sc1C(=O)N[C@H]1CCCNC1 [AZD7762] (partner 0.2 µM)
Summary of the method: as §1

| Cell Line | relative viability ([1]; first compound 0.02 µM) | relative viability ([1]; first compound 0.06325 µM) | relative viability ([1]; first compound 0.2 µM) | relative viability ([1]; first compound 0.6325 µM) | relative viability ([1]; first compound 2 µM) | relative viability ([2]; first compound 0.02 µM) | relative viability ([2]; first compound 0.06325 µM) | relative viability ([2]; first compound 0.2 µM) | relative viability ([2]; first compound 0.6325 µM) | relative viability ([2]; first compound 2 µM) | relative viability (BGJ398 + OSI-027; first compound 0.01 µM) | relative viability (BGJ398 + OSI-027; first compound 0.03162 µM) | relative viability (BGJ398 + OSI-027; first compound 0.1 µM) | relative viability (BGJ398 + OSI-027; first compound 0.3162 µM) | relative viability (BGJ398 + OSI-027; first compound 1 µM) | relative viability (BGJ398 + AZD7762; first compound 0.01 µM) | relative viability (BGJ398 + AZD7762; first compound 0.03162 µM) | relative viability (BGJ398 + AZD7762; first compound 0.1 µM) | relative viability (BGJ398 + AZD7762; first compound 0.3162 µM) | relative viability (BGJ398 + AZD7762; first compound 1 µM) |
| --- | --- | --- | --- | --- | --- | --- | --- | --- | --- | --- | --- | --- | --- | --- | --- | --- | --- | --- | --- | --- |
| 201T | 0.866 | 0.977 | 1.12 | 1.06 | 0.758 | 0.854 | 1.02 | 0.979 | 0.972 | 0.8 | 0.781 | 0.825 | 0.793 | 0.636 | 0.564 | 0.657 | 0.595 | 0.63 | 0.521 | 0.747 |
| A549 | 0.965 | 1.05 | 0.889 | 0.835 | 0.984 | 0.893 | 1.04 | 1.04 | 0.9 | 0.874 | – | – | – | – | – | – | – | – | – | – |
| A-427 | 1.08 | 1.11 | 1.13 | 1.01 | 1.06 | 1.03 | 1.04 | 1.07 | 0.994 | 1.08 | 0.375 | 0.365 | 0.309 | 0.235 | 0.285 | 0.688 | 0.685 | 0.599 | 0.43 | 0.565 |
| ABC-1 | 0.93 | 1.24 | 0.875 | 1.27 | 0.999 | 1.06 | 0.754 | 1.18 | 1 | 1.02 | 0.435 | 0.505 | 0.442 | 0.403 | 0.408 | 0.713 | 0.964 | 0.898 | 0.572 | 1.13 |
| BEN | 0.787 | 0.869 | 0.693 | 0.666 | 0.473 | 0.624 | 0.754 | 0.817 | 0.608 | 0.505 | 0.319 | 0.259 | 0.279 | 0.266 | 0.276 | 0.729 | 0.648 | 0.687 | 0.583 | 0.578 |
| CAL-12T | 1.07 | 1.05 | 1.09 | 1.01 | 1.15 | 0.512 | 0.708 | 0.659 | 0.629 | 0.751 | 0.539 | 0.773 | 0.83 | 0.673 | 0.491 | 0.656 | 0.664 | 0.698 | 0.636 | 0.625 |
| COR-L23 | 0.94 | 0.961 | 0.96 | 0.934 | 0.979 | 0.832 | 1.31 | 0.921 | 0.771 | 0.923 | 0.787 | 0.88 | 0.848 | 0.667 | 0.8 | – | – | – | – | – |
| COR-L 105 | 1 | 1.39 | 0.9 | 0.906 | 1.06 | 0.332 | 0.343 | 0.368 | 0.335 | 0.289 | 0.644 | 0.441 | 0.704 | 0.519 | 0.654 | – | – | – | – | – |
| Calu-6 | 0.848 | 0.866 | 0.843 | 0.864 | 0.928 | 1.05 | 1.14 | 0.97 | 1.06 | 1 | – | – | – | – | – | – | – | – | – | – |
| ChaGo-K-1 | 0.83 | 0.673 | 0.922 | 0.844 | 0.95 | – | – | – | – | – | 0.512 | 0.491 | 0.567 | 0.548 | 0.435 | 0.904 | 0.85 | 0.903 | 0.898 | 0.881 |
| EBC-1 | – | 0.105 | 0.0907 | 0.0919 | 0.11 | 0.221 | 0.203 | 0.191 | 0.189 | 0.231 | – | – | – | – | – | – | – | – | – | – |
| EKVX | 0.753 | 0.602 | 0.773 | 0.541 | 0.746 | 0.215 | 0.18 | 0.251 | 0.207 | 0.146 | 0.628 | 0.679 | 0.72 | 0.703 | 0.69 | 0.778 | 0.772 | 0.746 | 0.686 | 0.634 |
| EMC-BAC-2 | 1.04 | 1.07 | 1.05 | 0.903 | 0.923 | 0.829 | 0.96 | 0.962 | 0.762 | 0.555 | 0.357 | 0.417 | 0.398 | 0.333 | 0.37 | 1.09 | 1.18 | 1.14 | 1.12 | 1.04 |
| EPLC-272H | 0.846 | 0.693 | 0.696 | 0.664 | 0.611 | 0.895 | 1.18 | 1.11 | 0.916 | 0.576 | 0.283 | 0.279 | 0.248 | 0.241 | 0.293 | 0.209 | 0.21 | 0.252 | 0.174 | 0.306 |
| H3255 | 0.786 | 0.968 | 0.881 | 0.899 | 0.965 | 0.318 | 0.241 | 0.282 | 0.238 | 0.217 | 0.493 | – | 0.676 | 0.37 | 0.602 | 0.837 | 0.681 | 1.01 | 0.78 | 0.826 |
| HARA | 0.857 | 0.83 | 0.888 | 0.841 | 1.02 | 0.668 | 0.984 | 0.997 | 0.633 | 0.31 | 0.422 | 0.32 | 0.506 | 0.358 | 0.439 | 0.429 | 0.418 | 0.461 | 0.373 | 0.334 |
| HCC-15 | 0.981 | 1.02 | 1.01 | 1.03 | 0.928 | 0.84 | 0.87 | 0.881 | 0.792 | 0.84 | 0.689 | 0.72 | 0.693 | 0.675 | 0.554 | 1.15 | 1.06 | 1.24 | 1.17 | 1.39 |
| HCC-44 | – | – | – | – | – | 0.961 | 1.09 | 0.975 | 0.993 | 0.793 | 0.6 | 0.591 | 0.598 | 0.51 | 0.473 | 0.98 | 1 | 1.01 | 1.02 | 0.862 |
